Assay results from PubChem BioAssay (NCI).
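Method: 48-hour compound exposure of cells in 96-well plates, five concentrations, linear interpolation of endpoints. GI50 is the concentration that inhibits growth by half. The concentration for full growth arrest is given as TGI.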

Tests used:
Experiment in all cases: NCI-60 cell line screen, 48 h
[1] = test system: K-562 leukemia
[2] = test system: SF-295 CNS
[3] = test system: HL-60(TB) leukemia
[4] = test system: MDA-MB-468 breast
[5] = test system: 786-0 renal
[6] = test system: NCI-H522 lung
[7] = test system: HCC-2998 colon
[8] = test system: SNB-19 CNS
[9] = test system: HCT-15 colon
[10] = test system: PC-3 prostate
[11] = test system: A498 renal
[12] = test system: NCI-H226 lung
[13] = test system: TK-10 renal
[14] = test system: HT29 colon
[15] = test system: MDA-MB-231 breast
[16] = test system: RXF 393 renal
[17] = test system: SF-539 CNS
[18] = test system: RPMI-8226 leukemia
[19] = test system: MOLT-4 leukemia
[20] = test system: OVCAR-4 ovarian
[21] = test system: SW-620 colon
[22] = test system: NCI-H460 lung
[23] = test system: MDA-MB-435
[24] = test system: T-47D breast
[25] = test system: MALME-3M melanoma
[26] = test system: IGROV1 ovarian
[27] = test system: DU-145 prostate
[28] = test system: SN12C renal
[29] = test system: HOP-62 NSCLC

## CNC(=O)c1cc(Oc2ccc3nc(NC(=O)Nc4cccc(OC(F)(F)F)c4)sc3c2)ccn1
[1]
  TGI: > 100 µM
[2]
  GI50: 1.7 µM
  TGI: 4.17 µM
[3]
  GI50: > 100 µM
  TGI: > 100 µM
[4]
  GI50: 2.16 µM
  TGI: 13.5 µM
[5]
  GI50: 2.71 µM
  TGI: 7.41 µM
[6]
  GI50: 3.5 µM
  TGI: > 100 µM
[7]
  GI50: 8.69 µM
  TGI: > 100 µM
[8]
  GI50: 2.22 µM
  TGI: 5.55 µM
[9]
  GI50: 4.07 µM
  TGI: > 100 µM
[10]
  GI50: 2.22 µM
  TGI: > 100 µM
[11]
  GI50: 4.25 µM
  TGI: 9.77 µM
[12]
  GI50: 2.56 µM
  TGI: 6.14 µM
[13]
  GI50: 4.09 µM
  TGI: 13.2 µM
[14]
  GI50: 7.9 µM
  TGI: > 100 µM
[15]
  GI50: 2.37 µM
  TGI: 10.9 µM
[16]
  GI50: 1.91 µM
  TGI: 4.82 µM
[17]
  GI50: 3.07 µM
  TGI: 10.2 µM
[18]
  GI50: > 100 µM
  TGI: > 100 µM
[19]
  GI50: > 100 µM
  TGI: > 100 µM
[20]
  GI50: 2.97 µM
  TGI: 9.23 µM
[21]
  GI50: 4.94 µM
  TGI: > 100 µM
[22]
  GI50: 2.58 µM
  TGI: > 100 µM
[23]
  GI50: 4.27 µM
  TGI: > 100 µM
[24]
  GI50: 5.08 µM
  TGI: > 100 µM
[25]
  GI50: 1.82 µM
  TGI: 5.3 µM
[26]
  GI50: 4.65 µM
  TGI: 21.6 µM
[27]
  GI50: 3.64 µM
  TGI: > 100 µM
[28]
  GI50: 5.11 µM
  TGI: > 100 µM
[29]
  GI50: 1.72 µM
  TGI: 3.47 µM
